Measurements from patent US10457691B2, “Macrocyclic kinase inhibitors and uses thereof” (Dana-Farber Cancer Institute, Inc., priority 2014, dated 2019).

Key:
Format in all cases: biochemical
BRK = BRK (Homo sapiens, UniProt Q13882); assay: Protein kinase assay ([γ-32P] ATP), BRK; conditions: read-out: Activity of the protein kinase when treated with compound I-1 (% control)
Description: (§1) In another set of experiments, the activities of the compounds described herein against various protein kinases were determined according to the methods reported in Hastie et al., Nature Protocols, 2006, 1, 968-971.
(§2) Enzyme dilution buffer. This buffer consisted of 50 mM Tris-HCl, pH 7.5, 0.1 mM EGTA, 1 mg ml^−1 bovine serum albumin and 0.1% (vol/vol) 2-mercaptoethanol.
(§3) 10× concentrated assay buffer. An assay buffer of 500 mM Tris-HCl, pH 7.5, 1 mM EGTA, and 100 mM magnesium acetate was used for assay of a wide variety of protein kinases. In some experiments, other cofactors were included (e.g., calcium ions and calmodulin were included for assay of calcium-calmodulindependent protein kinases).
(§4) 1 mM [γ-^32P] ATP. The specific activity of the [γ-^32P] ATP solution was 1×10^5 to 1×10^6 c.p.m. per nmol depending on what was needed to produce an optimal signal/noise ratio. […] To measure the concentration of ATP, a sample of such a stock solution was diluted to 20 μM, and the absorbance of the diluted sample was measured at 259 nm. The absorbance of a 20-μM stock solution of ATP at 259 nm was about 0.31. […] ATP to produce a radioactivity of 1×10^5 to 1×10^6 c.p.m. per nmol. […]
(§5) 13) Measure radioactivity in the samples by Cerenkov counting (e.g., without liquid scintillation fluid) in a liquid scintillation counter using a “^32P program”. […]

BRSK1 = BRSK1 (Homo sapiens, UniProt Q8TDC3); assay: Protein kinase assay ([γ-32P] ATP), BRSK1; conditions: read-out: Activity of the protein kinase when treated with compound I-1 (% control)
Description: as §1, §2, §3, §4, §5

CAMK1 = CAMK1 (Homo sapiens, UniProt Q14012); assay: Protein kinase assay ([γ-32P] ATP), CAMK1; conditions: read-out: Activity of the protein kinase when treated with compound I-1 (% control)
Description: as §1, §2, §3, §4, §5

DYRK1A = DYRK1A (Homo sapiens, UniProt Q13627); assay: Protein kinase assay ([γ-32P] ATP), DYRK1A; conditions: read-out: Activity of the protein kinase when treated with compound I-1 (% control)
Description: as §1, §2, §3, §4, §5

GSK3b = GSK3b (Homo sapiens, UniProt P49841); assay: Protein kinase assay ([γ-32P] ATP), GSK3b; conditions: read-out: Activity of the protein kinase when treated with compound I-1 (% control)
Description: as §1, §2, §3, §4, §5

HIPK1 = HIPK1 (Homo sapiens, UniProt Q86Z02); assay: Protein kinase assay ([γ-32P] ATP), HIPK1; conditions: read-out: Activity of the protein kinase when treated with compound I-1 (% control)
Description: as §1, §2, §3, §4, §5

JNK2 = JNK2 (Homo sapiens, UniProt P45984); assay: Protein kinase assay ([γ-32P] ATP), JNK2; conditions: read-out: Activity of the protein kinase when treated with compound I-1 (% control)
Description: as §1, §2, §3, §4, §5

JNK3 = JNK3 (Homo sapiens, UniProt P53779); assay: Protein kinase assay ([γ-32P] ATP), JNK3; conditions: read-out: Activity of the protein kinase when treated with compound I-1 (% control)
Description: as §1, §2, §3, §4, §5

LKB1 = LKB1 (Homo sapiens, UniProt Q15831); assay: Protein kinase assay ([γ-32P] ATP), LKB1; conditions: read-out: Activity of the protein kinase when treated with compound I-1 (% control)
Description: as §1, §2, §3, §4, §5

MELK = MELK (Homo sapiens, UniProt Q14680); assay: Protein kinase assay ([γ-32P] ATP), MELK; conditions: read-out: Activity of the protein kinase when treated with compound I-1 (% control)
Description: as §1, §2, §3, §4, §5

p38b MAPK = p38b MAPK (Homo sapiens, UniProt Q15759); assay: Protein kinase assay ([γ-32P] ATP), p38b MAPK; conditions: read-out: Activity of the protein kinase when treated with compound I-1 (% control)
Description: as §1, §2, §3, §4, §5

PDK1 = PDK1 (Homo sapiens, UniProt O15530); assay: Protein kinase assay ([γ-32P] ATP), PDK1; conditions: read-out: Activity of the protein kinase when treated with compound I-1 (% control)
Description: as §1, §2, §3, §4, §5

PHK = assay: Protein kinase assay ([γ-32P] ATP), PHK
Description: as §1, §2, §3, §4, §5

PKD1 = PKD1 (Homo sapiens, UniProt Q15139); assay: Protein kinase assay ([γ-32P] ATP), PKD1; conditions: read-out: Activity of the protein kinase when treated with compound I-1 (% control)
Description: as §1, §2, §3, §4, §5

PRK2 = PRK2 (Homo sapiens, UniProt Q16513); assay: Protein kinase assay ([γ-32P] ATP), PRK2; conditions: read-out: Activity of the protein kinase when treated with compound I-1 (% control)
Description: as §1, §2, §3, §4, §5

TAO1 = TAO1 (Homo sapiens, UniProt Q7L7X3); assay: Protein kinase assay ([γ-32P] ATP), TAO1; conditions: read-out: Activity of the protein kinase when treated with compound I-1 (% control)
Description: as §1, §2, §3, §4, §5

TSSK1 = TSSK1 (Homo sapiens, UniProt Q9BXA7); assay: Protein kinase assay ([γ-32P] ATP), TSSK1; conditions: read-out: Activity of the protein kinase when treated with compound I-1 (% control)
Description: as §1, §2, §3, §4, §5

[1] = 0.1 μM of compound I-1, DMSO control = 100%
[2] = 1 μM of compound I-1, DMSO control = 100%

JNK3, sequence (P53779 whole entry): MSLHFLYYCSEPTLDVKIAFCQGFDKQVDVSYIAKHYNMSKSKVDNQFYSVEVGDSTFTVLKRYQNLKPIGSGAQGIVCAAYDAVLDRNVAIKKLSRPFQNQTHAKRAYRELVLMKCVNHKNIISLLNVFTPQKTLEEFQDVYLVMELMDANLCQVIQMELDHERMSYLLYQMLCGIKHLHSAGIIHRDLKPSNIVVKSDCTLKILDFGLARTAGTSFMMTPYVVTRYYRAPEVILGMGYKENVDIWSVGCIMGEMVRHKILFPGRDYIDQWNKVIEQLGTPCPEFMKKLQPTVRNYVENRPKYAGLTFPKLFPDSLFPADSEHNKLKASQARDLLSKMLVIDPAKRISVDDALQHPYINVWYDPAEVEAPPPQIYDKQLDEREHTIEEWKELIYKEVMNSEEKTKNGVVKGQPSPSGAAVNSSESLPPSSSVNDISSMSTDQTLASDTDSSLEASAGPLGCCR
BRSK1, sequence (Q8TDC3 whole entry): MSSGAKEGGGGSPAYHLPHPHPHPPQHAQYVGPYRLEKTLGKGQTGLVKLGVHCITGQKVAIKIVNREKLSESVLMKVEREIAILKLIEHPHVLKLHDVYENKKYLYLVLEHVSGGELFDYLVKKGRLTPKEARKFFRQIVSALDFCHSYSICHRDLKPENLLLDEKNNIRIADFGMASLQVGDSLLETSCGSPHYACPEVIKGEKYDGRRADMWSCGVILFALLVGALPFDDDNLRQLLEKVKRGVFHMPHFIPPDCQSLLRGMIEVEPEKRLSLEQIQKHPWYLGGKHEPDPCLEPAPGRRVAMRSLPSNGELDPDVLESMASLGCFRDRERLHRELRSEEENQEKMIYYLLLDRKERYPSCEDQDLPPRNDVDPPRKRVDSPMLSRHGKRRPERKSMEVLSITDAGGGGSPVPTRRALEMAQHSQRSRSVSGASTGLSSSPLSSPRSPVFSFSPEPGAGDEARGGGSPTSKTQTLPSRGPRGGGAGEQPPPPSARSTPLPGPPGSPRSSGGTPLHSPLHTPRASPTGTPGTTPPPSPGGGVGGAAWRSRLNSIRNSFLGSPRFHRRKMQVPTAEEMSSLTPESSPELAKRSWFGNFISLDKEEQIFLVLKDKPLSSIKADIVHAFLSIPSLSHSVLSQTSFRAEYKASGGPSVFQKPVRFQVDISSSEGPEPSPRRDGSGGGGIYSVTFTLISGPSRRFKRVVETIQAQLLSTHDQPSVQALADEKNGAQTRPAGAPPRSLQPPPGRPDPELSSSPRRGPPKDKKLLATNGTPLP
BRK, sequence (Q13882 whole entry): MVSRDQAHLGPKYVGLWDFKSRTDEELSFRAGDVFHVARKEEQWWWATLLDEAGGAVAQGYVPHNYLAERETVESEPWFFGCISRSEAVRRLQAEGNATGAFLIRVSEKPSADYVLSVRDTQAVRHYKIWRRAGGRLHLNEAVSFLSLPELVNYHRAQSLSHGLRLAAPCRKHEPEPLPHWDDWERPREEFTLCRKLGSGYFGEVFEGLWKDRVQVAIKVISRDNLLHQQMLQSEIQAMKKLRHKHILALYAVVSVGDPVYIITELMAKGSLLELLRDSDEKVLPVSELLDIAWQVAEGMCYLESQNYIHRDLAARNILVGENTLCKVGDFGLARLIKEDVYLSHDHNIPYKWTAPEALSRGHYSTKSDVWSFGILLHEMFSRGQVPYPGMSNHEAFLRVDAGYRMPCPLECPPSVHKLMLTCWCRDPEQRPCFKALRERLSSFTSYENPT
p38b MAPK, sequence (Q15759 whole entry): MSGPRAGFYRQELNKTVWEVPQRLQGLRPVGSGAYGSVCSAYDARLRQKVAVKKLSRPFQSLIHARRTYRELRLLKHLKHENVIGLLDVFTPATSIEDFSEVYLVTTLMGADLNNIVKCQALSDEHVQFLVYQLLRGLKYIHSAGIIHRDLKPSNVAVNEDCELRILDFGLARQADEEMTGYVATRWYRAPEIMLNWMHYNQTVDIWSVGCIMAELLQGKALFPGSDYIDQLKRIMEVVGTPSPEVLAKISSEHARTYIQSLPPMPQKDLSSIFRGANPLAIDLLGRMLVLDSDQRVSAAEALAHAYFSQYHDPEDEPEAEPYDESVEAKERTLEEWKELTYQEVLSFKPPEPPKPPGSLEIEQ
TAO1, sequence (Q7L7X3 whole entry): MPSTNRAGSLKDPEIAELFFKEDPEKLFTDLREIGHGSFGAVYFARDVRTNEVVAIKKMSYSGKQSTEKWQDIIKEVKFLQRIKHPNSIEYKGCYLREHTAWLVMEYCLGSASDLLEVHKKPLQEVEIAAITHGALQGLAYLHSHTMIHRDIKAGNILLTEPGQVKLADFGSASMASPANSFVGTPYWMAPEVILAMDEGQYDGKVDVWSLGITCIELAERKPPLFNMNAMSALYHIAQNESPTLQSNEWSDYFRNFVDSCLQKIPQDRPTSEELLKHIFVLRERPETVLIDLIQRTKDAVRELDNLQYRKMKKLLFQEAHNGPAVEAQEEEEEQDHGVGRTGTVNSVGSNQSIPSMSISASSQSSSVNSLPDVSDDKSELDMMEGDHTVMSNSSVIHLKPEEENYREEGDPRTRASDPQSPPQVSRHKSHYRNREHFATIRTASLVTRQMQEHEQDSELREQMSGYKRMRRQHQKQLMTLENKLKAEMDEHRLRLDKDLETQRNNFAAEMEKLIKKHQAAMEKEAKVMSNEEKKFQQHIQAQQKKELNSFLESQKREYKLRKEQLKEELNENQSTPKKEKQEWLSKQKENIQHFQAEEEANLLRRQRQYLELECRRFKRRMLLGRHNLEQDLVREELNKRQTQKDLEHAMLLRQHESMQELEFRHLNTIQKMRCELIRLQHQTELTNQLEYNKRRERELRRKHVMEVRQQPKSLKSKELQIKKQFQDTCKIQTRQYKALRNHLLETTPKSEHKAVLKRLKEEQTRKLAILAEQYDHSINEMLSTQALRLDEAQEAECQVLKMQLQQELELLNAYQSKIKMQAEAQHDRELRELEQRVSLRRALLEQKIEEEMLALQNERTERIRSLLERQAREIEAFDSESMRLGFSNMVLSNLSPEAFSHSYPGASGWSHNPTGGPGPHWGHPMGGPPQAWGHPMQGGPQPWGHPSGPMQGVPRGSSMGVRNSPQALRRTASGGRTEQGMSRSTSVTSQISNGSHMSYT
JNK2, sequence (P45984 whole entry): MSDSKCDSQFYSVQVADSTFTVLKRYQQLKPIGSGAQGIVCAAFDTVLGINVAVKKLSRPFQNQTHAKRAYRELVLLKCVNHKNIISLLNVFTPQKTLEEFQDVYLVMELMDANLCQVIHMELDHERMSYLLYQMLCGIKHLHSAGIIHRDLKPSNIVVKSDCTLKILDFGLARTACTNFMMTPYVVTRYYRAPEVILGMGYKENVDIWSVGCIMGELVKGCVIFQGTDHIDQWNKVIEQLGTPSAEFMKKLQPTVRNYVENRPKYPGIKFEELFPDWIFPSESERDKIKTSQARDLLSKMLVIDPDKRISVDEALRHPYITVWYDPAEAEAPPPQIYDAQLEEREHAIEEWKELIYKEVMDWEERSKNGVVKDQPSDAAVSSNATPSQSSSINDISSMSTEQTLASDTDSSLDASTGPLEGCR
TSSK1, sequence (Q9BXA7 whole entry, species assumed): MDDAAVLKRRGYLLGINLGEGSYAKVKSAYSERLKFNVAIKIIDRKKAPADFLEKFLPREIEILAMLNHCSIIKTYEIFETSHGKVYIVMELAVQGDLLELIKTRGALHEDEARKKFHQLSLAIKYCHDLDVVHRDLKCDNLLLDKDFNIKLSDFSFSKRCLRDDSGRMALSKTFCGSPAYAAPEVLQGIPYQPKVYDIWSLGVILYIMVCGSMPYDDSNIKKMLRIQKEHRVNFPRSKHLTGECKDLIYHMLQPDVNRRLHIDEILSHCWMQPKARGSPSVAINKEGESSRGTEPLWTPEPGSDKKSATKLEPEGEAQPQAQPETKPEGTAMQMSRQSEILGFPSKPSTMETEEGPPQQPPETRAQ
PKD1, sequence (Q15139 whole entry): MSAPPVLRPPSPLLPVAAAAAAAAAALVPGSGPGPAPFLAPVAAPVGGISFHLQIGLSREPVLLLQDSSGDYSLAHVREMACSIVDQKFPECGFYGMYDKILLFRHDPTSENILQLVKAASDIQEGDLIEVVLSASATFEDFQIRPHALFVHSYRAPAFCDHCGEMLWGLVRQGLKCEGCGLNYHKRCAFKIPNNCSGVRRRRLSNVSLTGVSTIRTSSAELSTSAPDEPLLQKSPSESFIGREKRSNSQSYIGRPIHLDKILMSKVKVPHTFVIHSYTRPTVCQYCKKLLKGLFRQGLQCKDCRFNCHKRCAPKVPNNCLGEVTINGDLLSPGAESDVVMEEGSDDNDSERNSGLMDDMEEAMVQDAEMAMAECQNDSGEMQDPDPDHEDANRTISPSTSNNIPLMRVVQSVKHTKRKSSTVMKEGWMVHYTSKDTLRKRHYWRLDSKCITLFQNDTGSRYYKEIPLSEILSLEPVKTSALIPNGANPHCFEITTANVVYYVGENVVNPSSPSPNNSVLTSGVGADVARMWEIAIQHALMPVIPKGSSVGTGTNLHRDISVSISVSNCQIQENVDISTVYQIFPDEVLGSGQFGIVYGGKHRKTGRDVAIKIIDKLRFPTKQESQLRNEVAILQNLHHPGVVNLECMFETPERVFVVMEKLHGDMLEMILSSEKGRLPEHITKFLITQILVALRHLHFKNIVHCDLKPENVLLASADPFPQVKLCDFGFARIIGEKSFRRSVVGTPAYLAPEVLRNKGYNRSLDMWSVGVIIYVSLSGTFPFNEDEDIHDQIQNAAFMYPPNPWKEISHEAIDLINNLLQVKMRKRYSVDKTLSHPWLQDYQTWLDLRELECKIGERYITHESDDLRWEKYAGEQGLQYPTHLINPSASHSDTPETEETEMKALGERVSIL

## Cc1cccc(C)c1NC(=O)N1C/C=C\COc2cccc(c2)Nc2cc1ncn2 [Compound I-1]
BRK; [1]
  remaining activity at 0.1 µM: 36%
BRK; [2]
  remaining activity at 1 µM: 12%
BRSK1; [1]
  remaining activity at 0.1 µM: 87%
BRSK1; [2]
  remaining activity at 1 µM: 66%
CAMK1; [1]
  remaining activity at 0.1 µM: 115%
CAMK1; [2]
  remaining activity at 1 µM: 56%
DYRK1A; [1]
  remaining activity at 0.1 µM: 104%
DYRK1A; [2]
  remaining activity at 1 µM: 86%
GSK3b; [1]
  remaining activity at 0.1 µM: 101%
GSK3b; [2]
  remaining activity at 1 µM: 75%
HIPK1; [1]
  remaining activity at 0.1 µM: 99%
HIPK1; [2]
  remaining activity at 1 µM: 82%
JNK2; [1]
  remaining activity at 0.1 µM: 81%
JNK2; [2]
  remaining activity at 1 µM: 34%
JNK3; [1]
  remaining activity at 0.1 µM: 51%
JNK3; [2]
  remaining activity at 1 µM: 30%
LKB1; [1]
  remaining activity at 0.1 µM: 99%
LKB1; [2]
  remaining activity at 1 µM: 65%
MELK; [1]
  remaining activity at 0.1 µM: 67%
MELK; [2]
  remaining activity at 1 µM: 49%
p38b MAPK; [1]
  remaining activity at 0.1 µM: 83%
p38b MAPK; [2]
  remaining activity at 1 µM: 29%
PDK1; [1]
  remaining activity at 0.1 µM: 103%
PDK1; [2]
  remaining activity at 1 µM: 87%
PHK; [1]
  Activity of the protein kinase when treated with compound I-1 (% control): 88 % control
PHK; [2]
  Activity of the protein kinase when treated with compound I-1 (% control): 100 % control
PKD1; [1]
  remaining activity at 0.1 µM: 63%
PKD1; [2]
  remaining activity at 1 µM: 29%
PRK2; [1]
  remaining activity at 0.1 µM: 112%
PRK2; [2]
  remaining activity at 1 µM: 87%
TAO1; [1]
  remaining activity at 0.1 µM: 72%
TAO1; [2]
  remaining activity at 1 µM: 34%
TSSK1; [1]
  remaining activity at 0.1 µM: 83%
TSSK1; [2]
  remaining activity at 1 µM: 85%
